Laboratory results: patent US10617734B2, “STAT3 and ERK signal pathway inhibitor comprising mogrosides and analogs thereof” (BEIJING UNIVERSITY OF AGRICULTURE, priority 2014, dated 2020)

Legend:
[1] = test system: lymphoma U937 cells, human melanoma A875 cells and leukemia cells K562; assay: Tests of examples 3 to 8 taken together; type: cell-based; details: Western Blotting, cell cycle, apoptosis, Hoechst, MTT
[2] = test system: prostate cancer cells, renal carcinoma cells, head and neck squamous cell carcinoma cells, lung cancer cells, ovarian cancer cells, breast cancer cells …; assay: Tests of examples 3 to 8 on further cancer cells; type: cell-based; details: pancreatic, liver and colon cancer cells
[3] = test system: human melanoma A875 cells; assay: Cell apoptosis, Annexin V-FITC/PI, flow cytometer; type: cell-based; details: for cell apoptosis: 10 μmol/L, 24 h
Procedure: Mogroside I E1, Mogroside II A2 and mogrol) for 24 h, cells were collected and washed twice with 200 μl of cold PBS, and then the cells were collected again; 100 μl of binding buffer was added for re-suspending the cells, and after the addition of 2 μl of Annexin V-FITC and well mixing, the resulting mixture was placed in dark at room temperature for 10 min, and then 5 μl of propidium iodide (PI) was added and then well mixed; the mixture was placed in dark at room temperature for 10 min, and detected by flow cytometer, and the results are shown in FIGS. 13-15.

[4] = test system: anti-apoptotic protein Bcl-2; assay: Western Blotting of Bcl-2 in A875 cells; type: cell-based; details: human melanoma A875 cells, 10 μmol/L, 24 h
Procedure: (§1) The STAT3 and ERK signal pathways can regulate cyclins and apoptosis genes, and in order to verify the effects of […] and mogrol, the expression status of downstream genes of STAT3 and ERK was detected, wherein the influences of the three mogrosides and analogs thereof, i.e. Mogrol I E1, Mogrol II A2 and mogrol, on Bcl-2 and P21 proteins in the histiocytic lymphoma U937 cells, human melanoma A875 cells and leukemia cells K562 were determined, respectively.
(§2) The regulation of Bcl-2 and P21 proteins by mogrosides and analog thereof to the was detected by Western Blotting, specifically: histiocytic lymphoma U937 cells, human melanoma A875 cells and leukemia cells K562 (1×10^6 cells/well) were inoculated into a 6-well culture plate overnight, and 0 and 10 μmol/L of the mogrosides and analogs thereof were added respectively, and kept cultured for 24 h. […]
(§3) The protein concentration was measured with bovine serum albumin (BSA) as the standard. 50 μg of the total proteins were separated by polyacrylamide gel electrophoresis with 12% SDS, and electrophoretically transferred to a PVDF membrane (polyvinylidene fluoride membrane), and blocked for 1 h by 5% of skim milk (containing 0.1% of Tween 20), and then antibodies P21, Bcl-2 and β-actin were added, wherein the primary antibody was incubated at 4° C. overnight (β-actin was used as reference loading amount); the membrane was washed for 3 times with TBS-T, 5 min each time; secondary antibody marked by horseradish peroxidase (HRP) was added for incubation at room temperature for 1 h, the membrane was washed with rinse solution (TBS-T) for 3 times, 10 min each time, and then ECL was added for incubation in dark for 5 min, and subsequently, a fluorescence imaging analyzer was used for image development and scanning analysis.

[5] = test system: cycle regulatory protein P21; assay: Western Blotting of P21 in K562 cells; type: cell-based, human; details: leukemia cells K562, 10 μmol/L, 24 h
Procedure: as §1, §2, §3

leukemia cells K562 [6] = assay: Cell apoptosis, Annexin V-FITC/PI, flow cytometer; type: cell-based, human; details: leukemia cells K562, 10 μmol/L, 24 h
Procedure: (§4) Lymphoma U937 cells, human melanoma A875 cells and leukemia cells K562 in logarithmic growth phase were selected, and after the respective culture with 0 and 10 μmol/L of the mogrosides and analogs thereof (i.e. Mogroside I E1, Mogroside II A2 and mogrol) for 24 h, cells were collected and washed twice with 200 μl of cold PBS, and then the cells were collected again; 100 μl of binding buffer was added for re-suspending the cells, and after the addition of 2 μl of Annexin V-FITC and well mixing, the resulting mixture was placed in dark at room temperature for 10 min, and then 5 μl of propidium iodide (PI) was added and then well mixed; the mixture was placed in dark at room temperature for 10 min, and detected by flow cytometer, and the results are shown in FIGS. 13-15.

leukemia cells K562 [7] = assay: Cell morphology, Hoechst 33258 staining, fluorescence microscope; type: cell-based, human; details: leukemia cells K562, 10, 100 and 250 μmol/L, 24-hour culture
Procedure: (§5) Lymphoma U937 cells, human melanoma A875 cells and leukemia cells K562 in logarithmic growth phase were selected, and the concentrations of the cells were adjusted to 1×10^4 cells/mL, and the cells were transferred to a 6-well plate for culture, and after the 24-hour culture, drugs were added to achieve final concentrations of 0, 10, 100 and 250 μmol/L, wherein only whole medium was added to the negative control groups, while Mogroside II A2 was added to the positive control groups, after 24-hour culture, waste solution was removed, and fixing solution was added to each well for fixing for 25 min, and then the resulting mixture was washed twice, 3 min each time, and then Hoechst 33258 staining solution was added for staining in dark at room temperature for 30 min, and the cell morphology variation was observed using a fluorescence microscope.

[8] = test system: cycle regulatory protein P21; assay: Western Blotting of P21 in U937 cells; type: cell-based; details: 10 μmol/L, 24 h
Procedure: as §1, §2, §3

[9] = test system: anti-apoptotic protein Bcl-2; assay: Western Blotting of Bcl-2 in K562 cells; type: cell-based, human; details: leukemia cells K562, 10 μmol/L, 24 h
Procedure: as §1, §2, §3

lymphoma U937 cells [10] = assay: Cell morphology, Hoechst 33258 staining, fluorescence microscope; type: cell-based; details: lymphoma U937 cells, 10, 100 and 250 μmol/L, 24-hour culture
Procedure: as §5

[11] = test system: human melanoma A875 cells; assay: as above; type: cell-based; details: A875 melanoma cells, 10, 100 and 250 μmol/L, 24-hour culture
Procedure: as §5

[12] = test system: histiocytic lymphoma U937 cells; assay: Cell cycle distribution, PI staining, flow cytometer; type: cell-based; details: 24 h; for proportion of cells in G0/G1 phase with the rise of the concentration: U937 cells, 0, 1, 10, 150 and 250 μmol/L; for cell cycle distribution (proportion of cells of G0/G1 phase): U937 cells, 10 μmol/L
From the text: (§6) The influences of Mogroside I E1, Mogroside II A2 and mogrol on the cell cycle distribution of the histiocytic lymphoma U937 cells, the human melanoma A875 cells and the leukemia cells K562.
(§7) The cell cycle arrest achieved by drugs is an important approach to the inhibition of cancer cell proliferation.

[13] = test system: human melanoma A875 cells; assay: as above; type: cell-based; details: human melanoma A875 cells, 10 μmol/L, 24 h
From the text: as §6, §7

[14] = test system: anti-apoptotic protein Bcl-2; assay: Western Blotting of Bcl-2 in U937 cells; type: cell-based; details: 10 μmol/L, 24 h
Procedure: as §1, §2, §3

leukemia cells K562 [15] = assay: Cell cycle distribution, PI staining, flow cytometer; type: cell-based, human; details: leukemia cells K562, 10 μmol/L, 24 h
From the text: as §6, §7

lymphoma U937 cells [16] = assay: Cell apoptosis, Annexin V-FITC/PI, flow cytometer; type: cell-based; details: 10 μmol/L, 24 h
Procedure: as §4

[17] = test system: cycle regulatory protein P21; assay: Western Blotting of P21 in A875 cells; type: cell-based; details: human melanoma A875 cells, 10 μmol/L, 24 h
Procedure: as §1, §2, §3

| Compound | results of the tests of examples 3 to 8 [1] | results of the tests of examples 3 to 8 on further cancer cells [2] | cell apoptosis [3] | amount for cell apoptosis with the rise of the concentration ([3]; different concentrations (FIG. 16)) | expression of anti-apoptotic protein Bcl-2 [4] | expression of cycle regulatory protein P21 [5] | cell apoptosis (leukemia cells K562 [6]) | cell morphology variation (Hoechst 33258) (leukemia cells K562 [7]) | expression of cycle regulatory protein P21 [8] | expression of anti-apoptotic protein Bcl-2 [9] | cell morphology variation (Hoechst 33258) (lymphoma U937 cells [10]) | cell morphology variation (Hoechst 33258) [11] | proportion of cells in G0/G1 phase with the rise of the concentration [12] | cell cycle distribution (proportion of cells of G0/G1 phase) [12] | cell cycle distribution (proportion of cells in the G0/G1 phase) [13] | expression of anti-apoptotic protein Bcl-2 [14] | cell cycle distribution (cell cycle arrest) (leukemia cells K562 [15]) | cell apoptosis (lymphoma U937 cells [16]) | expression of cycle regulatory protein P21 [17] |
| --- | --- | --- | --- | --- | --- | --- | --- | --- | --- | --- | --- | --- | --- | --- | --- | --- | --- | --- | --- |
| Mogrol III | identical to those of Mogrol I E1 and Mogrol II A2 | identical to the results of the lymphoma U937 cells |  |  |  |  |  |  |  |  |  |  |  |  |  |  |  |  |  |
| C[C@H](CC[C@@H](O[C@@H]1O[C@H](CO[C@@H]2O[C@H](CO)[C@@H](O)[C@H](O)[C@H]2O)[C@@H](O)[C@H](O)[C@H]1O[C@@H]1O[C@H](CO)[C@@H](O)[C@H](O)[C@H]1O)C(C)(C)O)[C@H]1CC[C@@]2(C)[C@@H]3CC=C4[C@@H](CC[C@H](O[C@@H]5O[C@H](CO[C@@H]6O[C@H](CO)[C@@H](O)[C@H](O)[C@H]6O)[C@@H](O)[C@H](O)[C@H]5O)C4(C)C)[C@]3(C)[C@H](O)C[C@]12C [Mogroside V] | identical to those of Mogrol I E1 and Mogrol II A2 | identical to the results of the lymphoma U937 cells |  |  |  |  |  |  |  |  |  |  |  |  |  |  |  |  |  |
| Mogrol IV | identical to those of Mogrol I E1 and Mogrol II A2 | identical to the results of the lymphoma U937 cells |  |  |  |  |  |  |  |  |  |  |  |  |  |  |  |  |  |
| C[C@H](CC[C@@H](O)C(C)(C)O)[C@H]1CC[C@@]2(C)[C@H]3CC=C4[C@@H](CC[C@H](O[C@@H]5O[C@H](CO[C@@H]6O[C@H](CO)[C@@H](O)[C@H](O)[C@H]6O)[C@@H](O)[C@H](O)[C@H]5O)C4(C)C)[C@]3(C)[C@H](O)C[C@]12C [Mogroside II A2] |  |  | induce the apoptosis | the amount for cell apoptosis increases | significantly down-regulated | significantly up-regulated | induce the apoptosis | identical to the results of the human melanoma A875 cells | significantly up-regulated | significantly down-regulated | identical to the results of the human melanoma A875 cells | typical variation of cell apoptosis | gradually increased | G0/G1 arrest | G0/G1 arrest | significantly down-regulated | arrested | induce the apoptosis | significantly up-regulated |
| C[C@H](CC[C@@H](O[C@@H]1O[C@H](CO[C@@H]2O[C@H](CO)[C@@H](O)[C@H](O)[C@H]2O)[C@@H](O)[C@H](O)[C@H]1O[C@@H]1O[C@H](CO)[C@@H](O)[C@H](O)[C@H]1O)C(C)(C)O)[C@H]1CC[C@@]2(C)[C@H]3CC=C4[C@H](CC[C@H](O[C@@H]5O[C@H](CO[C@@H]6O[C@H](CO)[C@@H](O)[C@H](O)[C@H]6O)[C@@H](O)[C@H](O)[C@H]5O[C@@H]5O[C@H](CO)[C@@H](O)[C@H](O)[C@H]5O)C4(C)C)[C@]3(C)[C@H](O)C[C@]12C [Mogroside VI] | identical to those of Mogrol I E1 and Mogrol II A2 | identical to the results of the lymphoma U937 cells |  |  |  |  |  |  |  |  |  |  |  |  |  |  |  |  |  |
| C[C@H](CC[C@@H](O)C(C)(C)O)[C@H]1CC[C@@]2(C)[C@H]3CC=C4[C@@H](CC[C@H](O[C@@H]5O[C@H](CO)[C@@H](O)[C@H](O)[C@H]5O)C4(C)C)[C@]3(C)C(O)C[C@]12C (some centres unmarked) [Mogroside I E1] |  |  | induce the apoptosis |  | significantly down-regulated | significantly up-regulated | induce the apoptosis | identical to the results of Mogroside II A2 | significantly up-regulated | significantly down-regulated | identical to the results of Mogroside II A2 | identical to the results of Mogroside II A2 | gradually increased | G0/G1 arrest | G0/G1 arrest | significantly down-regulated | arrested | induce the apoptosis | significantly up-regulated |
